The values below come from patent US20050131061A1, “Angiogenesis inhibitors” (Mercian Corporation, priority 2002, published 2005).

Bounds are passed on as bounds.

The test system of data set [1] is human umbilical cord vein endothelial cells. Kind of data set: Inhibition of proliferation of human umbilical cord vein endothelial cells (3H-thymidine incorporation). Type of data set: cell-based. As to conditions: bFGF 10 μg/l, 48 hours + 8 hours 3H-thymidine. The protocol: That is, 0.1 ml of human umbilical cord vein endothelial cells (Cell Systems Corporation) adjusted to 2×10^3 cells/well in MCDB131 medium (Chlorella Industry Co., Ltd.) containing 10 μg/l basic fibroblast cell growth factor and 10% fetal calf serum is seeded on a collagen-coated 96-well microplate (Sumitomo Bakelite Co., Ltd.) and at the same time a suitable amount of sample is added. The resultant is cultivated in an atmosphere containing 5% CO2 at 37° C. for 48 hours. Further, 1 μCi/well ^3H-tymidine is added and cultivation is performed for 8 hours. Then, the cells are collected using a cell harvester and the radioactivity incorporated into cells is measured using a scintillation counter.
When the sample contains an active substance for inhibiting the growth of angioendothelial cells, the incorporation of radioactivity into the cells is suppressed. Further, an effective concentration range of the sample is obtained from the change in radioactivity in the cells depending on the concentration of the sample.
(In general: Incorporation of labelled thymidine or its analogues reports DNA synthesis.)

The next data set deals with K562 (leukemia). The data set can be described thus: Toxicity to cultivated human cancer cells, MTT growth inhibition. As to conditions: 72 hours. Type of data set: cell-based. How it is done: (§1) Note that the tests were performed as follows. Various kinds of human cancer cells (K562 (leukemia), H226 (lung cancer), DLD-1 (prostate cancer) and HT1080 (fibrosarcoma)) were suspended in RPMI1640 medium or DMEM medium containing 10% fetal calf serum and each adjusted to 5×10^3 cells/well, and 0.1 ml of this was seeded on a 96-well microplate. At the same time, a suitable amount of each of the substances F-1491 (substances F-1491A to F-1491H) was added and the resultant was cultivated at 37° C. for 72 hours in an atmosphere containing 5% CO2. Further, 10 μl of 0.5% MTT (3-[4,5-dimethylthiazol-2-yl]2,5-[…] tetrazolium bromide) was added and the resultant was cultivated for 4 hours. After the cultivation, 0.1 ml of 10% SDS-0.01N hydrochloric acid was added and absorbance at 570 nm was measured to determine 50% growth inhibition concentration.

The next data set deals with H226 (lung cancer). Described as above. As to conditions: 72 hours. Type of data set: cell-based. The protocol: as §1
The test system of a further data set is DLD-1 (prostate cancer). The description is as above. Type of data set: cell-based. As to conditions: DLD-1 cells, 72 hours. The protocol:
as §1

The subject of a further data set is HT1080 (fibrosarcoma). The data set is described as above. It is filed as cell-based. As to conditions: 72 hours. The protocol:
as §1

The nature of data set [2]: Solubility (physicochemical properties). How it is done:
• (1) Form: white powder • (2) Molecular formula: C24H34O3 • (Measurement of C24H35O3 by high resolution FAB mass spectrometry Calculated m/z: 371.2586 (M+H)^+, Found m/z: 371.2580) • (3) Specific optical rotation: [α]D^26−194° (c 0.1, methanol) • (4) Melting point: 55 to 58° C. • (5) Infrared absorption spectrum: The results obtained by measurement by the KBr method are as shown in FIG. 1. […] The chemical shift, multiplicity and spin coupling constant of each signal are shown in Table 1. • (9) ^13C-NMR spectrum: Measurement was performed by dissolving the substance in heavy methanol and using tetramethylsilane as an internal standard. 2. Physicochemical Properties of the Substance F-1491B • (1) Form: white powder • (2) Molecular formula: C23H32O3 • (Measurement of C23H33O3 by high resolution FAB mass spectrometry Calculated m/z: 357.2430 (M+H)^+, Found m/z: 357.2463), • (3) Specific optical rotation: [α]D^26-222° (c 0.1, methanol) • (4) Melting point: 53 to 56° C. • (5) Infrared absorption spectrum: The results obtained by measurement by the KBr method are as shown in FIG. 2. […] The chemical shift, multiplicity, and spin coupling constant of each signal are shown in Table 1. • (9) ^13C-NMR spectrum: Measurement was performed by dissolving the substance in heavy methanol and using tetramethylsilane as an internal standard. 3. Physicochemical Properties of the Substance F-1491C • (1) Form: white powder • (2) Molecular formula: C24H35O3Cl • (Measurement of C24H35O3Cl by high resolution ESI mass spectrometry Calculated m/z: 429.2172 (M+Na)^+, Found m/z: 429.2204) • (3) Ultraviolet absorption spectrum (measured in methanol): […]

Where [3] appears, read: in methanol, chloroform and dimethyl sulfoxide.

Turning to `CC=C(C)C1C(C=CC=C(C)C(C)=O)C2CCC(C)(O)CC2C2OC21C` (centres unmarked) [F-1491F], the “50% growth inhibition concentration” value is 9.3 mg/L in data set [1]; 72 mg/L in the data set on K562 (leukemia); above 100 mg/L in the data set on H226 (lung cancer); above 100 mg/L in the data set on DLD-1 (prostate cancer); above 100 mg/L in the data set with HT1080 (fibrosarcoma).

As to `CC=C(C)C1C(C=CC=C(C)C(=O)CC)C2CC(Cl)C(C)(O)CC2C2OC21C` (centres unmarked) [F-1491C], the “50% growth inhibition concentration” value in data set [1] was 7.4 mg/L; with K562 (leukemia) it was 52 mg/L; with H226 (lung cancer), above 100 mg/L; with DLD-1 (prostate cancer) it was above 100 mg/L; in the data set with HT1080 (fibrosarcoma), above 100 mg/L.

For the compound `CC=C(C)C1C(C=CC=C(C)C(C)=O)C2CC(Cl)C(C)(O)CC2C2OC21C` (centres unmarked) [F-1491D], the “50% growth inhibition concentration” value is recorded as 4.6 mg/L in data set [1]; 80 mg/L with K562 (leukemia); above 100 mg/L in the data set with H226 (lung cancer); above 100 mg/L with DLD-1 (prostate cancer); above 100 mg/L in the data set on HT1080 (fibrosarcoma).

For the compound `CC=C(C)C1C(C=CC=C(C)C(C)=O)C2CC3OC3(C)CC2C2OC21C` (centres unmarked) [F-1491B], the “50% growth inhibition concentration” value in data set [1] is recorded as 3.4 mg/L; in the data set on K562 (leukemia), 36 mg/L; in the data set with H226 (lung cancer) it was above 100 mg/L; with DLD-1 (prostate cancer), above 100 mg/L; in the data set with HT1080 (fibrosarcoma) it was above 100 mg/L. Besides, the values for the Solubility entry in data set [2] (setting [3]) and in data set [2] (in water) were “Soluble” and “hardly soluble”, respectively.

On to `CC=C(C)C1C(C=CC=C(C)C(=O)CC)C2CC3OC3(C)CC2C2OC21C` (centres unmarked) [F-1491A], for which the “50% growth inhibition concentration” value in data set [1] is 2.2 mg/L; in the data set on K562 (leukemia), 39 mg/L; in the data set on H226 (lung cancer), above 100 mg/L; in the data set with DLD-1 (prostate cancer) it was above 100 mg/L; in the data set with HT1080 (fibrosarcoma) it was above 100 mg/L. In addition, the Solubility entry in data set [2] (setting [3]) is “Soluble”; in data set [2] (in water) it was “hardly soluble”.

Turning to `CC=C(C)C1C(C=CC=C(C)C(C)=O)C2CC(O)C(C)(O)CC2C2OC21C` (centres unmarked) [F-1491H], the “50% growth inhibition concentration” value in data set [1] is 5.6 mg/L; in the data set with K562 (leukemia), 61 mg/L; with H226 (lung cancer) it was above 100 mg/L; in the data set with DLD-1 (prostate cancer) it was above 100 mg/L; with HT1080 (fibrosarcoma), above 100 mg/L.

`CC=C(C)C1C(C=CC=C(C)C(=O)CC)C2CCC(C)(O)CC2C2OC21C` (centres unmarked) [F-1491E]: the “50% growth inhibition concentration” value in data set [1] was 3.2 mg/L; in the data set with K562 (leukemia), 68 mg/L; in the data set on H226 (lung cancer), above 100 mg/L; in the data set on DLD-1 (prostate cancer), above 100 mg/L; with HT1080 (fibrosarcoma) it was above 100 mg/L.

Consider `CC=C(C)C1C(C=CC=C(C)C(C)=O)C2CC(OC)C(C)(O)CC2C2OC21C` (centres unmarked) [F-1491G], for which the “50% growth inhibition concentration” value in data set [1] is listed as 7.7 mg/L; in the data set on K562 (leukemia), 95 mg/L; with H226 (lung cancer), above 100 mg/L; with DLD-1 (prostate cancer), above 100 mg/L; with HT1080 (fibrosarcoma) it was above 100 mg/L.
